The text below walks through data of patent publication US20180256561A1, “Pharmaceutical Combination” (GLAXOSMITHKLINE INTELLECTUAL PROPERTY DEVELOPMENT LIMITED, priority 2015, published 2018).

Where two headings read alike, the source gives them in different places.

The test system of data set [1] is subjects with COPD. The settings on record: 400 mcg and 1200 mcg once daily, 14 days; cited from earlier work.
Data set [2] concerns subjects with COPD. The settings on record: 28-day study; cited from earlier work.
Data set [3] has as its system subjects with persistent uncontrolled asthma. Nature of the data set: Randomised, double-blind, placebo-controlled parallel group study of fluticasone furoate in subjects with persistent uncontrolled asthma (8 weeks). It is filed as in vivo, human. The protocol: In one such study, the safety and efficacy of four doses of fluticasone furoate in subjects with persistent uncontrolled asthma were evaluated. In this study, which was a randomised, double-blind, placebo-controlled, parallel group study, 598 patients received one of six treatments: fluticasone furoate (25, 50, 100 or 200 mcg) once daily, fluticasone propionate 100 mcg twice daily or placebo for 8 weeks. The primary endpoint was change from baseline in trough (pre-dose) forced expiratory volume in 1 second (FEV1) at Week 8. […] This study supports the use of fluticasone furoate (100 or 200 mcg once-daily) for the treatment of persistent uncontrolled asthma.

As to `COc1cc(NC(=O)CCN2CCC(OC(=O)Nc3ccccc3-c3ccccc3)CC2)c(Cl)cc1CNC[C@H](O)c1ccc(O)c2[nH]c(=O)ccc12` [Compound 1, biphenyl-2-ylcarbamic acid 1-[2-(2-chloro-4-{[(R)-2-hydroxy-2-(8-hydroxy-2-oxo-1,2-dihydroquinolin-5-yl)ethylamino]methyl}-5-methoxyphenylcarbamoyl)ethyl]piperidin-4-yl ester], the tolerability entry in data set [1] and in data set [2] was “well tolerated” each time.

With `C[C@@H]1C[C@H]2[C@@H]3C[C@H](F)C4=CC(=O)C=C[C@]4(C)[C@@]3(F)[C@@H](O)C[C@]2(C)[C@@]1(OC(=O)c1ccco1)C(=O)SCF` [Compound 2, 6α,9α-difluoro-17α-[(2-furanylcarbonyl)oxy]-11β-hydroxy-16α-methyl-3-oxo-androsta-1,4-diene-17β-carbothioic acid S-fluoromethyl ester], the “increase in trough FEV1 from baseline at Week 8 relative to placebo” value in data set [3] (100 mcg once daily) and in data set [3] (200 mcg once daily) was greater than 200 mL each time.
